Read-outs that look alike come from different tables or passages of the source.
Key:
[1] = tested on: GII.4 VA387 (N/N) P-dimers; format: binding; conditions: CSP NMR; buffer B: 75 mM sodium phosphate, 100mM NaCl (pH 7.3); 170 µM protein; 298 K; listed as 3′SL
MNV07 P-domain = format: binding
VA387 P-dimers = tested on: VA387 P-dimers; set-up: method as in ref 31 = [31]; conditions: MS based data; cited from earlier work
[2] = target: GII.4 Saga (N/N) P-dimers (Norovirus GII.4, UniProt B5BTR7); experiment: biochemical; format: binding
[3] = target: GII.4 MI001 (N/N) P-dimers (Norovirus Hu/GII.4/MI001/2011/USA, UniProt S5FWF8); experiment: biochemical; format: binding; conditions: CSP NMR titration; 75 mM sodium phosphate, 100 mM NaCl (pH 7.3); 220 µM protein
GII.4 Saga (P-domain) = GII.4 Saga (P-domain) (Norovirus GII.4, UniProt B5BTR7); experiment: Re-evaluation of previously reported STD NMR titrations, one-site binding model; set-up: species or system human norovirus (HuNoV)
GII.10 P-dimers = target: GII.10 P-dimers; set-up: method as in ref 28 = [28]; conditions: STD NMR titrations stopped at first step of the curve; cited from earlier work
MNV CW1 P-domain = MNV CW1 P-domain (Norovirus, UniProt Q80J94, K296E); experiment: CSP NMR binding experiment with MNV P-domain; set-up: species or system murine norovirus (MNV); conditions: MNV P-domains saturated with GCDCA
[4] = target: P-domain of the VP1 capsid protein of human norovirus GII.4 strain MI001 (human norovirus GII.4 strain MI001)
[5] = target: P-domain of the VP1 capsid protein of human norovirus GII.4 strain VA387 (human norovirus GII.4 strain VA387)
[6] = target: P-domain of the VP1 capsid protein of murine norovirus strain MNV07 (murine norovirus strain MNV07)
[7] = 25 mM Tris-d11 pH* 7.40, 300 mM NaCl, 298 K, refit of titration data of ref [2], read-out: KD in mM (reevaluated)

C[C@@H]1O[C@@H](O[C@@H]2[C@@H](O[C@H]3O[C@H](CO)[C@H](O)[C@H](O)[C@H]3O)[C@@H](O)[C@@H](CO)O[C@@H]2N=[N+]=[N-])[C@@H](O)[C@H](O)[C@@H]1O (hydrate or solvate) [B-Tri 3, blood group B trisaccharide (azido group at the anomeric position)]
melting point: 204 to 206 °C

CC(=O)N[C@H]1[C@H]([C@H](O)[C@H](O)CO)O[C@@](O[C@H]2[C@@H](O)[C@@H](CO)O[C@@H](O[C@H]3[C@H](O)[C@@H](O)[C@H](O)O[C@@H]3CO)[C@@H]2O)(C(=O)O)C[C@@H]1O [3′SL 6, 3′-sialyllactose]
binding (tested negative/positive) [1]: no binding
binding (tested negative/positive) (MNV07 P-domain; STD, buffer B (20 mM sodium acetate, 100 mM NaCl, pH 5.3), with GCDCA, no EDTA, no Ca2+, listed as 3′SL): no saturation transfer
binding to VA387 P-dimers (VA387 P-dimers): neither 3′-sialyllactose nor 6′-sialyllactose bind

CC(=O)N[C@H]1[C@H]([C@H](O)[C@H](O)CO)O[C@@](OC[C@H]2O[C@@H](O[C@H]3[C@H](O)[C@@H](O)[C@H](O)O[C@@H]3CO)[C@H](O)[C@@H](O)[C@H]2O)(C(=O)O)C[C@@H]1O [6′-sialyllactose, reference compound]
binding to VA387 P-dimers (VA387 P-dimers): neither 3′-sialyllactose nor 6′-sialyllactose bind

CC(=O)N[C@H]1[C@@H](O[C@H]2[C@@H](O)[C@@H](CO)O[C@@H](O)[C@@H]2O[C@@H]2O[C@@H](C)[C@@H](O)[C@@H](O)[C@@H]2O)O[C@H](CO)[C@H](O)[C@@H]1O [A-Tri 2, blood group A trisaccharide]
Kd [2]: 4.3 ± 0.4 mM

C[C@@H]1O[C@@H](O[C@@H]2[C@@H](O[C@H]3O[C@H](CO)[C@H](O)[C@H](O)[C@H]3O)[C@@H](O)[C@@H](CO)O[C@@H]2N=[N+]=[N-])[C@@H](O)[C@H](O)[C@@H]1O [B-Tri 3, blood group B trisaccharide (azido group at the anomeric position)]
Kd [3]: 4.3 ± 0.4 mM

O=C(O)CC(O)(CC(=O)O)C(=O)O [Citrate, reference compound]
Kd (GII.4 Saga (P-domain); KD in mM (reevaluated)): 22.9 ± 2.7 mM
dissociation constants (GII.10 P-dimers): sub millimolar

CO[C@@H]1O[C@@H](C)[C@@H](O)[C@@H](O)[C@@H]1O [Fuc 8, methyl α-L-fucopyranoside]
Kd (GII.4 Saga (P-domain); 25 mM BisTris-d19 pH* 6.5, 300 mM NaCl, 298 K, refit of titration data of ref [2], read-out: KD in mM (reevaluated)): 15.1 ± 1.6 mM
Kd (GII.4 Saga (P-domain); 25 mM PBS pH* 5.50, 300 mM NaCl, 298 K, refit of titration data of ref [2], read-out: KD in mM (reevaluated)): 21.9 ± 2.6 mM
Kd (GII.4 Saga (P-domain); 25 mM PBS pH* 6.50, 300 mM NaCl, 298 K, refit of titration data of ref [2], read-out: KD in mM (reevaluated)): 18.4 ± 2.6 mM
Kd (GII.4 Saga (P-domain); 25 mM PBS pH* 7.40, 300 mM NaCl, 298 K, refit of titration data of ref [2] (Mallagaray et al., Angew Chem Int Ed 2015), read-out: KD in mM (reevaluated)): 15.6 ± 1.9 mM
Kd (GII.4 Saga (P-domain); 25 mM sodium acetate-d3, pH* 4.50, 300 mM NaCl, 298 K, refit of titration data of ref [2], read-out: KD in mM (reevaluated)): 24.5 ± 4.1 mM

CC(CCC(=O)NCC(=O)O)C1CCC2C3C(O)CC4CC(O)CCC4(C)C3CCC12C (centres unmarked) [GCDCA, glycochenodeoxycholic acid, reference compound]
STD effects (saturation transfer to ligand) (MNV07 P-domain; 80 µM protein, 20 mM sodium acetate buffer (pH 5.3), 250 µM GCDCA, 2 mM 3′SL, 298 K, 600 MHz): show STD effects

CO[C@@H]1O[C@H](CO)[C@H](O)[C@H](O)[C@H]1O[C@@H]1O[C@@H](C)[C@@H](O)[C@@H](O)[C@@H]1O [H-Dis 12, blood group H-disaccharide]
Kd (GII.4 Saga (P-domain); [7]): 26.5 ± 2.7 mM

C[C@H](O)[C@@H](O)[C@@H](O)[C@H](O)C=O [L-fucose]
dissociation constants (GII.10 P-dimers): sub millimolar

[Cl-].[Cl-].[Mg+2] [Mg^2+]
binding of bivalent metal ions (MNV CW1 P-domain): detected binding

[Mn+2] [Mn^2+]
binding of bivalent metal ions (MNV CW1 P-domain): detected binding

CO[C@@H]1O[C@H](CO)[C@H](O)[C@H](O[C@H]2O[C@H](CO)[C@H](O)[C@H](O)[C@H]2O)[C@H]1O[C@@H]1O[C@@H](C)[C@@H](O)[C@@H](O)[C@@H]1O [b -Methyl glycoside of B-trisaccharide, reference compound]
Kd (GII.4 Saga (P-domain); [7]): 5.2 ± 0.5 mM

P-domain of the VP1 capsid protein of human norovirus GII.4 strain MI001 (domain or fragment)
stoichiometry N [4]: 2

P-domain of the VP1 capsid protein of human norovirus GII.4 strain VA387 (domain or fragment)
stoichiometry N [5]: 2

P-domain of the VP1 capsid protein of murine norovirus strain MNV07 (domain or fragment)
stoichiometry N [6]: 2
